Measured values: patent US20250099420A1, “SMALL MOLECULE MODULATORS OF GPR139 COMPLEX” (University of Florida Research Foundation, Incorporated, priority 2022, published 2025)
Like-named read-outs stand apart in the source and are kept apart here.

Experiments:
parental HEK cells = assay: HEK parental Agonist Counterscreen Assay (non-transfected cells); type: cell-based; settings: for Averaged Max % Response (±St. Dev.): activity relative to known control
From the text: The high control for the agonist counterscreen was Forskolin not acetylcholine.

GPR139 = biological target: T1, GPR139 (Homo sapiens, UniProt Q6DWJ6); assay: GPR139 Agonist titration / agonist counterscreen assay (calcium detection, HEK-GPR139 cells); type: cell-based; parameters: expressed in transfected cells; host or cells: HEK Aequorin cells, Maxcyte transient transfection; settings: GPR139 Agonist Activity; for Averaged Max % Response (±St. Dev.): activity relative to known control; for EC50: read-out: EC50
T1 sequence (Q6DWJ6 1-353): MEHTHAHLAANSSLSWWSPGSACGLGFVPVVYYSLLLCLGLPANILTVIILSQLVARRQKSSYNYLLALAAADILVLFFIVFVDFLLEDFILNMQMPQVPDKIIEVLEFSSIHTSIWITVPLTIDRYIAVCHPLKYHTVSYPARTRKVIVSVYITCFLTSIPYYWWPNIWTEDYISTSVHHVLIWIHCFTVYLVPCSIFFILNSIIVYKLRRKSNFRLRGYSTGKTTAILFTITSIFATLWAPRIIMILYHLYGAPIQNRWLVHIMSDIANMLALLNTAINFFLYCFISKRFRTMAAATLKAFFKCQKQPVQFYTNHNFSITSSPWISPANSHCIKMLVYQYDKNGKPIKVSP
Protocol: GPR activity was assessed using a calcium detection assay. […] Negative control samples were treated with DMSO. […] Intracellular calcium was measured using Calcium 5.

[1] = Homo sapiens, HEK293, HEK Agonist Activity section of Table 4 (parental HEK counterscreen)
[2] = values printed in E-notation without unit
[3] = HEK Agonist Activity section of Table 4 (parental HEK counterscreen)
[4] = HEK Agonist Activity, parental non-transfected HEK cells
[5] = Homo sapiens, HEK293, HEK Agonist Activity, parental non-transfected HEK cells

Lipophilic Efficiency (logD) (parental HEK cells; HEK Agonist Activity section) | Lipophilic Efficiency (logP) (parental HEK cells; HEK Agonist Activity section) | Averaged Max % Response (±St. Dev.) (GPR139) [%] | Lipophilic Efficiency (logD) (GPR139; based on logD) | Lipophilic Efficiency (logP) (GPR139; based on logP) | Hill Slope (GPR139; fitted dose-response curve) | Efficiency Ligand (GPR139; ligand efficiency) | EC50 (GPR139; [2]) [nM] | Lipophilic Efficiency (logD) (parental HEK cells; HEK Agonist Activity) | Lipophilic Efficiency (logP) (parental HEK cells; HEK Agonist Activity) | Structure (SMILES) | Averaged Max % Response (±St. Dev.) (parental HEK cells; HEK Agonist Activity section) [%] | EC50 (parental HEK cells; [1]) [nM] | Averaged Max % Response (±St. Dev.) (parental HEK cells; HEK Agonist Activity) [%] | further results
−0.064 | −0.064 | 88.97 ± 19.06 | 1.77 | 1.77 | 0.76 | 0.35 | 205 |  |  | Cc1cccc(NC(=S)NNC(=O)CSCc2cccc3ccccc23)c1 [SR-07000002775] | 2.05 ± 12.71 | > 14100 |  | 
1.52 | 1.52 | 88.51 ± 8.87 |  |  |  |  |  |  |  | Cc1cc(C)c2c(cnn2CC(=O)N2CCc3ccccc3C2)c1 [SR-01000154995] | 41.69 ± 44.54 |  |  | EC50 (parental HEK cells; [3]): > 14100 nM; Efficiency Ligand (GPR139): 0.36; Hill Slope (GPR139): 1.08; Lipophilic Efficiency (logD) (GPR139): 2.91; Lipophilic Efficiency (logP) (GPR139): 2.91; EC50 (GPR139; HEK-GPR139 cells): 572 nM
1.69 | 1.66 | 81.17 ± 17.61 |  |  |  |  |  |  |  | COc1ccc(CC(=O)NNC(=O)C(C)Oc2ccc(Cl)cc2Cl)cc1OC (stereo not shown) [SR-01000312779] | 13.34 ± 1.65 | > 14100 |  | Efficiency Ligand (GPR139): 0.30; Hill Slope (GPR139): 1.91; Lipophilic Efficiency (logD) (GPR139): 2.77; Lipophilic Efficiency (logP) (GPR139): 2.74; EC50 (GPR139; HEK-GPR139 cells): 1200 nM
2.02 | 2.02 | 95.59 ± 27.48 | 4.03 | 4.03 | 1.03 | 0.38 | 141 |  |  | O=C(CN1CCN(Cc2ccccc2Cl)C1=O)NC1CCCCCC1 [SR-01000125460] | −2.02 ± 12.81 |  |  | EC50 (parental HEK cells; [3]): > 14100 nM
 |  | 123.61 ± 28.77 | 2.25 | 2.25 | 0.47 | 0.37 | 36.6 | −0.34 | −0.34 | COP(=O)(CN(CCc1ccc(Cl)cc1)C(=O)Nc1ccc(Cl)c(Cl)c1)OC [SR-01000584158] |  |  | 0.77 ± 6.52 | EC50 (parental HEK cells; [4]): > 14100 nM
1.65 | 1.65 | 89.30 ± 20.10 |  |  |  |  |  |  |  | Cc1nn(-c2ccccc2)nc1C(=O)NNC(=O)CSCc1cccc2ccccc12 [SR-01000634249] | 7.70 ± 7.23 |  |  | EC50 (parental HEK cells; [3]): > 14100 nM; Efficiency Ligand (GPR139): 0.26; Hill Slope (GPR139): 0.69; Lipophilic Efficiency (logD) (GPR139): 2.57; Lipophilic Efficiency (logP) (GPR139): 2.57; EC50 (GPR139; HEK-GPR139 cells): 1700 nM
 |  | 112.57 ± 13.42 | 7.01 | 7.01 | 0.64 | 0.43 | 2.9 | 3.29 | 3.29 | CN(Cc1cccs1)C(=O)CN1C(=O)NC(C)(c2ccc3c(c2)OCO3)C1=O (stereo not shown) [SR-01000068229] |  |  | −2.42 ± 7.08 | EC50 (parental HEK cells; [4]): > 15400 nM
 |  | 126.19 ± 25.88 | 3.74 | 3.74 |  | 0.37 | > 6.5 | 0.40 | 0.40 | Cc1cc(C(=O)CCC(=O)NNC(=O)c2ccc(COc3ccccc3)cc2)c(C)o1 [SR-01000069259] |  |  | 7.00 ± 9.99 | EC50 (parental HEK cells; [5]): > 14200 nM
 |  | 111.04 ± 7.77 | 5.74 | 5.74 |  | 0.43 |  | 2.34 | 2.34 | COc1ccc(C2(C)NC(=O)N(CC(=O)Nc3cc(C)ccc3C)C2=O)cc1 (stereo not shown) [SR-01000918716] |  |  | 92.04 ± 16.23 | Hill Slope (parental HEK cells; HEK Agonist Activity): 0.85; EC50 (parental HEK cells; [4]): 5500 nM
2.90 | 1.91 | 83.76 ± 7.63 |  |  |  |  |  |  |  | O=C(Cn1ccc2ccccc21)NC1CCN(Cc2ccccc2)CC1 [SR-01000925700] | 10.33 ± 2.07 | > 14100 |  | Efficiency Ligand (GPR139): 0.32; Hill Slope (GPR139): 0.44; Lipophilic Efficiency (logD) (GPR139): 4.08; Lipophilic Efficiency (logP) (GPR139): 3.09; EC50 (GPR139; HEK-GPR139 cells): 931 nM
 |  | 114.94 ± 7.97 | 6.86 | 6.86 | 0.54 | 0.52 | 1.3 | 2.84 | 2.84 | CC(C(=O)NCCc1ccc(Cl)cc1)n1ncn2cccc2c1=O (stereo not shown) [SR-01000140260] |  |  | 19.72 ± 7.61 | EC50 (parental HEK cells; [4]): > 14100 nM
2.03 | 2.02 | 101.00 ± 9.27 | 3.98 | 3.97 | 0.53 | 0.50 | 158 |  |  | O=c1nc(SCc2ccccc2F)c2c([nH]1)CCC2 [SR-01000914970] | −5.66 ± 4.95 |  |  | EC50 (parental HEK cells; [3]): > 14100 nM
−0.610 | −0.614 | 87.84 ± 4.08 |  |  |  |  |  |  |  | CC(C)(C)c1cn2cccc(OCc3ccc(Cl)c(Cl)c3)c2n1 [SR-07000004609] | −5.59 ± 4.81 | > 14100 |  | Efficiency Ligand (GPR139): 0.39; Hill Slope (GPR139): 0.44; Lipophilic Efficiency (logD) (GPR139): 0.98; Lipophilic Efficiency (logP) (GPR139): 0.98; EC50 (GPR139; HEK-GPR139 cells): 358 nM
3.75 | 3.75 | 88.18 ± 13.52 | 5.60 | 5.60 | 0.77 | 0.36 | 196 |  |  | O=C(CC1Nc2ccccc2NC1=O)NCC1COc2ccccc2O1 (stereo not shown) [SR-01000146516] | −2.96 ± 7.51 | > 14100 |  | 
1.45 | 1.43 | 97.57 ± 16.88 | 3.55 | 3.54 | 1.18 | 0.31 |  |  |  | CCN(CCCNC(=O)CN1CCC(Cc2ccccc2C)C1=O)c1cccc(C)c1 (stereo not shown) [SR-01000150393] | 10.10 ± 9.60 | > 14100 |  | 
2.38 | 2.38 | 97.10 ± 8.84 | 4.46 | 4.46 | 0.83 | 0.44 | 119 |  |  | Cc1ccc(SCC(=O)Nc2nnc(-c3ccco3)o2)cc1 [SR-01000021414] | 22.31 ± 11.03 |  |  | EC50 (parental HEK cells; [3]): > 14300 nM
 |  | 100.27 ± 11.90 | 5.36 | 5.36 | 0.74 | 0.37 | 45.1 | 2.87 | 2.87 | O=C(Cn1ccc2ccccc21)NCCn1cnc(-c2ccccc2)cc1=O [SR-01000926956] |  |  | −3.24 ± 9.86 | EC50 (parental HEK cells; [5]): > 14100 nM
 |  | 123.26 ± 12.43 | 5.68 | 5.68 | 0.93 | 0.44 | 11.5 | 2.61 | 2.61 | COc1ccc(CCNC(=O)c2cnc(N3CCCC3CO)s2)cc1 (stereo not shown) [SR-01000652673] |  |  | 3.95 ± 2.97 | EC50 (parental HEK cells; [5]): > 13400 nM
 |  | 119.40 ± 41.91 | 4.54 | 4.54 | 0.73 | 0.40 | 35.8 | 1.94 | 1.94 | O=C(CN1CCN(Cc2ccccc2Cl)C1=O)NCc1ccccc1Cl [SR-01000125458] |  |  | −1.02 ± 2.16 | EC50 (parental HEK cells; [5]): > 14100 nM
